From patent US5440012A, “Calcitonin and method for the preparation and use thereof” (Sumitomo Metal Industries, Ltd., priority 1991, dated 1995)
Positions of bridges follow the written chain, without caps; N, C: chain ends. Residues, ends and D or L forms follow the SMILES beside them.

Legend:
[1] = tested on: grown cartilage cell culture of rabbit costal cartilage; assay: Alkaline phosphatase activity per protein in rabbit costal cartilage cell culture (chondrocyte differentiation); type: cell-based; details: 10 μl of 10^-12 mol/ml calcitonin solution added on fourth and sixth days, 9 days incubation; control about 88,150
Description: When their physiological activities on cartilage cells or chondrocytes were determined according to the technique of Bessey et al (J. Biol. Chem. 164: 321-329, 1964) and that of Lowry et al (J. Biol. Chem. 193: 265-275, 1951), a strong cell differentiation-promoting activity was noted. […]
After incubation for 9 days, the cell layer (1) was recovered and the alkaline phosphatase activity in each well was determined by the method of Bessey et al (J. Biol. Chem. 164: 321-329, 1946) using p-nitrophenylphosphoric acid as a substrate.
The amount of protein in each well was also determined by assaying the recovered cell layer (1) in accordance with the method of Lowry et al (J. Biol. Chem. 193: 265-275, 1951) using bovine serum albumin as a standard substance.
The value for alkaline phosphatase activity per unit weight of protein was calculated from the values for alkaline phosphatase activity and amount of protein determined as above. The calculated value of the control was about 88,150 nmol/30 min/mg-protein. […]

[2] = tested on: concentration of calcium in the serum; assay: Blood calcium-decreasing activity in rats (serum calcium, parallel line assay); type: in vivo, Male Wistar rats
Description: The physiological activities of the pure naturally-occurring stingray calcitonin extracted from the ultimobranchial gland of a stingray and those of synthetic stingray calcitonin obtained in the above-described manner were determined according to the technique of Homma et al (J. Biochem. 100: 459-467, 1986).
Male Wistar rats weighing 90-110 grams (10 animals in each group) which had fasted for 24 hours prior to the experiment were intravenously injected with a standard solution of salmon calcitonin or eel calcitonin or a solution of the synthetic stingray calcitonin (produced in Example 2) each dissolved in an aqueous 0.9% sodium chloride solution (pH 4.6) containing 0.1% bovine serum albumin at a dose of 1 pmol or 10 pmol per animal. Exactly one hour after the administration, a blood sample was collected from the artery of each test animal and the concentration of calcium in the serum was determined by atomic absorption spectroscopy. Based on the values for serum calcium concentration in rats of the groups in which one of the standard solutions was administered at a dose of 1 pmol or 10 pmol per animal and those in rats of the group in which the stingray calcitonin of the present invention was administered at the same dose, the relative titer of the stingray calcitonin was determined by the standard statistical procedures for parallel line assays. […]

CC[C@H](C)[C@H](NC(=O)[C@H](CC(N)=O)NC(=O)[C@H](CCC(N)=O)NC(=O)[C@H](CC(C)C)NC(=O)[C@H](CCCCN)NC(=O)[C@H](Cc1c[nH]cn1)NC(=O)[C@H](CC(C)C)NC(=O)[C@H](CCC(N)=O)NC(=O)[C@H](CCC(N)=O)NC(=O)[C@H](CO)NC(=O)[C@H](CC(C)C)NC(=O)[C@H](CCCCN)NC(=O)CNC(=O)[C@@H](NC(=O)[C@@H](NC(=O)[C@@H]1CSSC[C@H](N)C(=O)N[C@@H]([C@@H](C)O)C(=O)N[C@@H](CO)C(=O)N[C@@H](CC(C)C)C(=O)N[C@@H](CO)C(=O)N[C@@H]([C@@H](C)O)C(=O)N1)C(C)C)C(C)C)C(=O)N[C@@H](CCC(N)=O)C(=O)N[C@@H](CCCNC(=N)N)C(=O)N[C@H](C(=O)N[C@@H](CC(=O)O)C(=O)N[C@H](C(=O)NCC(=O)N[C@@H](C)C(=O)N[C@@H](C)C(=O)N[C@H](C(=O)N1CCC[C@H]1C(N)=O)[C@@H](C)O)C(C)C)[C@@H](C)O [calcitonin of the present invention] (H-CTSLSTCVVGKLSQQLHKLQNIQRTDVGAATP-NH2; disulfide 1-7) was tested. Which “alkaline phosphatase activity per unit weight of protein” value [1] did it give?
The value was “about 106,000 nmol/30 min/mg-protein”.

And the “titer (blood calcium-decreasing activity)” value ([2]; rats, intravenous, 1 pmol or 10 pmol per animal, serum calcium one hour after administration, salmon and eel calcitonin used as standard substances)?
The value was “about 3770 IU/mg”.

What about the “blood calcium-decreasing activity (in words)” value ([2]; technique of Homma et al) of the same compound?
The value was “strong blood calcium-decreasing activity”.
